{
  "source": "patent US20070158611A1",
  "about": "“Compositions comprising nanorods and methods of making and using them” (priority 2005, published 2007)",
  "test_system": "Acidovorax delafieldii (ATCC #17505)",
  "assay": "Bactericidal properties of silver nanofluids, colony count on NB agar plates",
  "type": "cell-based",
  "experimental": "The addition of nanostructures to fluids can prevent bacterial growth. The bactericidal properties of spherical silver colloid and silver nanorods was measured and compared with the bactericidal properties of silver nitrate. Lyophilized Acidovorax delafieldii (ATCC #17505) bacterium was reconstituted in Difco Nutrient Broth (NB), streaked onto NB agar plates and incubated for 24 hours at 37° C. A single colony was isolated and used to inoculate an NB culture that was grown to mid-log phase where the visibly cloudy solution has an optical density of 0.3 at a wavelength of 600 nm. 10 μL of this preculture (˜2.3×10^4 CFU/mL) was mixed with 5 mL of NB medium that contained 0.2 mg/mL, 0.02 mg/mL, 2 μg/mL, 0.02 μg/mL, and 0.002 μg/mL concentrations of either silver nitrate (AgNO3), silver colloid, or silver nanorods. […] Viable cells were enumerated by the colony count method on NB agar plates.",
  "data": [
    {"smiles": "O=[N+]([O-])[O-].[Ag+]", "note": "[AgNO3, silver nitrate]", "values": [
      {"measurement": "biocide activity compared with other silver samples", "setting": "28 hours, 37° C.", "result": "highest biocide activity"},
      {"measurement": "CFU/mL", "setting": "Acidovorax delafieldii in NB after 28 hours of incubation at 37° C., sample concentration as in Sample cell (text: 0.2 μg/mL Ag)", "result": "1.2 × 10^3 CFU/mL"}
    ]}
  ]
}
